Experimental data from patent US6835382B2, “Ii peptide therapeutics to enhance antigen presentation” (University of Massachusetts, priority 1996, dated 2004).
Non-standard residues stand in square brackets, D forms with d. hArg = N=C(N)NCCCC[C@H](N)C(=O)O; Cit = NC(=O)NCCC[C@H](N)C(=O)O

Legend:
[1] = tested on: murine E^k MHC class II allele; test: simultaneous assay, E^k allele (CH27 APC, TPc9.1 T hybridoma, THMCC82-103 or PGCC81-104); type: cell-based
Method in brief: (§1)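 Antigenic peptide, mitomycin C-treated APC, effector compound and allele-restricted T hybridoma cultured together for 24 h. Supernatant then transferred to interleukin-dependent HT-2 cells. T cell activation quantified as [3H]TdR uptake by HT-2 cells.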

[2] = target: T1, murine E^d MHC class II allele (Mus musculus, UniProt P01904+P01915); test: simultaneous assay, E^d allele (A20 APC, G28.C9 T hybridoma, HEL106-116; HT-2 [3H]TdR readout); type: cell-based; set-up: The A20 and CH27 B cell lymphoma lines express H-2^d and H-2^k alleles, respectively; endogenous in cells; host or cells: A20 B cell lymphoma (mitomycin C-treated or paraformaldehyde-fixed)
T1 sequence (P01904 26-255): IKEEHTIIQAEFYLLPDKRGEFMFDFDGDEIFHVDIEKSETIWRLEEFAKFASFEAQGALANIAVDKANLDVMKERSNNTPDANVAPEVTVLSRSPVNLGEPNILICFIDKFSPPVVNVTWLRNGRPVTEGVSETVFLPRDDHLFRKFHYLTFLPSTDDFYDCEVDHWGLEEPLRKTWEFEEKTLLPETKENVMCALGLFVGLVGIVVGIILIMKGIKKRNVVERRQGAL
T1 sequence (P01915 27-264 limits assumed): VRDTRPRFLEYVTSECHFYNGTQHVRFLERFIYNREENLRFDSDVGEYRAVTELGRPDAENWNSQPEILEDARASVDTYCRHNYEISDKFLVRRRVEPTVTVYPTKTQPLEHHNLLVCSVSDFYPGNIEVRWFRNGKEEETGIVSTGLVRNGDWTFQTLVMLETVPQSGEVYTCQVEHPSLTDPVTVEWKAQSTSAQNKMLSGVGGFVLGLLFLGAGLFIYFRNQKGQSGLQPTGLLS
Method in brief: as §1

[3] = Table 14, AE peptide 64 μM, supernatant 1:4
[4] = Table 15, AE peptide 16 μM, supernatant 1:4
[5] = Table 16, AE peptide 4 μM, supernatant 1:8
[6] = Table 11, AE peptide 64 μM, supernatant 1:4
[7] = Table 11, AE peptide 64 μM, supernatant 1:8
[8] = Table 13, AE peptide 1 μM (fourth value), supernatant 1:4
[9] = Table 13, AE peptide 4 μM (third value), supernatant 1:4
[10] = Table 13, AE peptide 16 μM (second value), supernatant 1:4
[11] = Table 13, AE peptide 64 μM (first value), supernatant 1:4
[12] = Table 7, AE peptide 64 μM, supernatant 1:4, normalized by a factor of 5
[13] = Table 7, AE peptide 64 μM, supernatant 1:4
[14] = Table 18, AE peptide 64 μM, supernatant 1:4

Ac-LRLKWPK-NH2 [AE309]
Times Baseline Response, E^k [1, 3]: 48.2
Times Baseline Response, E^k [1, 4]: 38.0
Times Baseline Response, E^k [1, 5]: 1.8
Times Baseline Response, E^d [2, 3]: 12.1
Times Baseline Response, E^d [2, 4]: 13.1
Times Baseline Response, E^d [2, 5]: 20.0

Ac-LRLKYPK-NH2 [AE301]
Times Baseline Response, E^k [1, 3]: 59.9
Times Baseline Response, E^k [1, 4]: 46.6
Times Baseline Response, E^k [1, 5]: 15.5
Times Baseline Response, E^d [2, 3]: 12.5
Times Baseline Response, E^d [2, 4]: 30.7
Times Baseline Response, E^d [2, 5]: 20.1

Ac-LRLKYPk-NH2 [AE307]
Times Baseline Response, E^k [1, 3]: 56.4
Times Baseline Response, E^d [2, 3]: 13.2

Ac-LRLKyPK-NH2 [AE308]
Times Baseline Response, E^k [1, 3]: 45.5
Times Baseline Response, E^d [2, 3]: 12.6

Ac-LRM M LPK-NH2 (Ac-LRMMLPK-NH2) [AE220]
Times Baseline Response, E^k ([1]; Table 6, AE peptide 64 μM, supernatant 1:4, reduced by a factor of 5): 12.5
Times Baseline Response, E^k [1, 5]: 1.1
Times Baseline Response, E^d ([2]; Table 6, AE peptide 64 μM, supernatant 1:4): 2.8
Times Baseline Response, E^d [2, 5]: 12.0

Ac-LRM k LPK-NH2 [AE163]
Times Baseline Response, E^k [1, 6]: 1.1
Times Baseline Response, E^d [2, 7]: 2.4

Ac-LRMK (mL) PK-NH2 [AE175]
Times Baseline Response, E^k [1, 8]: 2.8
Times Baseline Response, E^k [1, 9]: 6.5
Times Baseline Response, E^k [1, 10]: 28.5
Times Baseline Response, E^k [1, 11]: 59.0
Times Baseline Response, E^k [1, 3]: 58.0
Times Baseline Response, E^d [2, 8]: 1
Times Baseline Response, E^d [2, 9]: 6
Times Baseline Response, E^d [2, 10]: 36
Times Baseline Response, E^d [2, 11]: 61
Times Baseline Response, E^d [2, 3]: 15.9

Ac-LRMK Cit PK-NH2 (Ac-LRMK[Cit]PK-NH2; SMILES CSCC[C@H](NC(=O)[C@H](CCCNC(=N)N)NC(=O)[C@H](CC(C)C)NC(C)=O)C(=O)N[C@@H](CCCCN)C(=O)N[C@@H](CCCNC(N)=O)C(=O)N1CCC[C@H]1C(=O)N[C@@H](CCCCN)C(N)=O) [AE226]
Times Baseline Response, E^k [1, 12]: 9.0
Times Baseline Response, E^d [2, 13]: 9.0

Ac-LRMK D PK-NH2 (Ac-LRMKDPK-NH2) [AE230]
Times Baseline Response, E^k [1, 12]: 1.1
Times Baseline Response, E^d [2, 13]: 0.6

Ac-LRMK E PK-NH2 (Ac-LRMKEPK-NH2) [AE231]
Times Baseline Response, E^k [1, 12]: 1.2
Times Baseline Response, E^d [2, 13]: 1.8

Ac-LRMK F PK-NH2 (Ac-LRMKFPK-NH2) [AE234]
Times Baseline Response, E^k [1, 12]: 16.6
Times Baseline Response, E^d [2, 13]: 14.2

Ac-LRMK H PK-NH2 (Ac-LRMKHPK-NH2) [AE228]
Times Baseline Response, E^k [1, 12]: 20.3
Times Baseline Response, E^d [2, 13]: 8.5

Ac-LRMK HArg PK-NH2 (Ac-LRMK[hArg]PK-NH2; SMILES CSCC[C@H](NC(=O)[C@H](CCCNC(=N)N)NC(=O)[C@H](CC(C)C)NC(C)=O)C(=O)N[C@@H](CCCCN)C(=O)N[C@@H](CCCCNC(=N)N)C(=O)N1CCC[C@H]1C(=O)N[C@@H](CCCCN)C(N)=O) [AE227]
Times Baseline Response, E^k [1, 12]: 20.5
Times Baseline Response, E^k [1, 4]: 45.6
Times Baseline Response, E^d [2, 13]: 8.1
Times Baseline Response, E^d [2, 4]: 32.3

Ac-LRMK K PK-NH2 (Ac-LRMKKPK-NH2) [AE229]
Times Baseline Response, E^k [1, 12]: 16.2
Times Baseline Response, E^d [2, 13]: 13.2

Ac-LRMK M PK-NH2 (Ac-LRMKMPK-NH2) [AE236]
Times Baseline Response, E^k [1, 12]: 16.9
Times Baseline Response, E^d [2, 13]: 15.2

Ac-LRMK N PK-NH2 (Ac-LRMKNPK-NH2) [AE232]
Times Baseline Response, E^k [1, 12]: 8.9
Times Baseline Response, E^k [1, 4]: 15.5
Times Baseline Response, E^d [2, 13]: 12.5
Times Baseline Response, E^d [2, 4]: 24.3

Ac-LRMK Q PK-NH2 (Ac-LRMKQPK-NH2) [AE233]
Times Baseline Response, E^k [1, 12]: 17.0
Times Baseline Response, E^d [2, 13]: 11.5

Ac-LRMK Y PK-NH2 (Ac-LRMKYPK-NH2; not fully specified; printed as Ac-LRMK Y PK-NH2) [AE235]
Times Baseline Response, E^k [1, 12]: 21.8
Times Baseline Response, E^k [1, 3]: 56.6
Times Baseline Response, E^k [1, 4]: 47.7
Times Baseline Response, E^k [1, 5]: 8.4
Times Baseline Response, E^k ([1]; Table 17, AE peptide 64 μM, supernatant 1:4): 26.8
Times Baseline Response, E^k [1, 14]: 56.6
Times Baseline Response, E^d [2, 13]: 14.6
Times Baseline Response, E^d [2, 3]: 12.5
Times Baseline Response, E^d [2, 4]: 29.4
Times Baseline Response, E^d [2, 5]: 14.3
Times Baseline Response, E^d ([2]; Table 17, AE peptide 4 μM, supernatant 1:4): 51
Times Baseline Response, E^d [2, 14]: 12.5

Ac-LRMK l PK-NH2 [AE164]
Times Baseline Response, E^k [1, 6]: 3.8
Times Baseline Response, E^k [1, 3]: 43.9
Times Baseline Response, E^d [2, 7]: 17.7
Times Baseline Response, E^d [2, 3]: 12.9

Ac-LRMKL p K-NH2 [AE165]
Times Baseline Response, E^k [1, 6]: 3.6
Times Baseline Response, E^d [2, 7]: 26.6

Ac-LRMKLP F-NH2 (Ac-LRMKLPF-NH2) [AE248]
Times Baseline Response, E^k ([1]; Table 9, AE peptide 64 μM, supernatant 1:4, normalized by a factor of 5): 16.3
Times Baseline Response, E^k [1, 4]: 42.6
Times Baseline Response, E^d ([2]; Table 9, AE peptide 64 μM, supernatant 1:4): 17.2
Times Baseline Response, E^d [2, 4]: 34.7
